Measured values as given in US9889115B2, “Fitness assay and associated methods” (priority 1998, dated 2018).
pIC50, pKi: −log10 of the molar value.

How the values were obtained:
HIV-1 protease G48V/V82A = molecular target: T1, HIV-1 protease G48V/V82A (Human immunodeficiency virus type 1 group M subtype B, UniProt P04585, G536V/V570A); assay: continuous fluorogenic HIV protease assay; assay type: biochemical; conditions: for KI-wt/KI-mut / pKi: G48V/V82A; for Fitness: G48V/V82A relative to WT
T1 construct: proteases containing the deleterious drug resistance associated mutations V82F/I84V and G48V/V82A
Experimental: This example describes the protocol for the sensitive continuous fluorogenic assay for HIV protease of the present invention and its application. […] 21702-1201, upon written request. The inhibition constant for wild-type HIV-1, Kimnt/Kiwt ratio, and vitality were measured. (See Gulnik et al., Biochemistry, 34, 9282-9287 (1995). Protease activity was measured using the fluorgenic substrate Lys-Ala-Arg-Val-Tyr-Phe(NO2)-Glu-Ala-Nle-NH2 (Bachem Bioscience, Inc.). (See Peranteau et al., D.H. (1995) Anal. Biochem.).
The reaction was initiated by the addition of 5 μl of substrate stock solution in water. Increase in fluorescence intensity at the emission maximum of 306 nm (excitation wavelength was 277 nm) was monitored as a function of time using Aminco Bowman-2 luminescence spectrometer (SLM Instruments, Inc.). The initial rate of hydrolysis was calculated by second degree polynomial fit using SLM AB2 2.0 operating software.
For inhibition studies, inhibitors were prepared as stock solutions at different concentrations in dimethylsulfoxide. […] The reaction was initiated by the addition of 5 μl of substrate stock solution in water. For data analysis, the mathematical model for tight-binding inhibitors was used. (See Williams and Morrison (1979), In: Methods of Enzymol. 63, (ed. D. L. Purich), 437-467, Academic Press, NY, London). […]
This example describes the inhibitory activity of compounds 35 (FIG. 5A), 36 (FIG. 5B), 37 (FIG. 5C) and 38 (FIG. 5D). In accordance with the technique disclosed in Example 13 above, the inhibitory activity of these compounds was tested against proteases of the wild-type HIV-1. Compound 36, 37 and 38 were also tested against proteases containing the deleterious drug resistance associated mutations V82F/I84V and G48V/V82A. Fitness was determined in accordance with Example 13.

HIV-1 protease V82F/I84V [1] = molecular target: T2, HIV-1 protease V82F/I84V (Human immunodeficiency virus type 1 group M subtype B, UniProt P04585, I572V/V570F); assay: continuous fluorogenic HIV protease assay; assay type: biochemical; conditions: V82F/I84V (Table 7)
T2 construct: the proteases of wild-type HIV-1 (WT) and various mutant enzymes
Experimental: (§1) This example describes the protocol for the sensitive continuous fluorogenic assay for HIV protease of the present invention and its application. […] The inhibition constant for wild-type HIV-1, Kimnt/Kiwt ratio, and vitality were measured.
(§2) The reaction was initiated by the addition of 5 μl of substrate stock solution in water. […] The initial rate of hydrolysis was calculated by second degree polynomial fit using SLM AB2 2.0 operating software.
(§3) For inhibition studies, inhibitors were prepared as stock solutions at different concentrations in dimethylsulfoxide. […] The reaction was initiated by the addition of 5 μl of substrate stock solution in water. For data analysis, the mathematical model for tight-binding inhibitors was used.

HIV-1 protease V82F/I84V [2] = assay: continuous fluorogenic HIV protease assay; assay type: biochemical; conditions: for KI-wt/KI-mut: V82F/I84V (Table 7); for Fitness: V82F/I84V relative to WT (Table 7)
Experimental: as §1, §2, §3

[3] = molecular target: T3, wild-type HIV-1 (WT) protease (Human immunodeficiency virus type 1 group M subtype B, UniProt P04585); assay: continuous fluorogenic HIV protease assay; assay type: biochemical; conditions: WT (Table 7)
T3 construct: the proteases of wild-type HIV-1 (WT)
Experimental: as §1, §2, §3

HIV-1LAI [4] = assay: PHA-PBMC assay, p24 Gag protein production; assay type: cell-based; conditions: HIV-1LAI; PBMC/p24, day 7 (Table 8)
HIV-1LAI [5] = assay: MT-2 cells, MTT assay; assay type: cell-based; conditions: HIV-1LAI; MT-2/MTT, day 7
Experimental: All drug sensitivities were performed in triplicate. […] The IC50's were determined using the MTT assay on day 7 of culture. All sensitivities were determined in […].

HIV-1BAL = assay: PHA-PBMC assay, p24 Gag protein production; assay type: cell-based; conditions: HIV-1Ba-L; PBMC/p24, day 7 (Table 8)

Compound | KI-wt/KI-mut (HIV-1 protease G48V/V82A) | pKi (HIV-1 protease G48V/V82A) | Fitness (HIV-1 protease G48V/V82A) | pKi (HIV-1 protease V82F/I84V [1]) | KI-wt/KI-mut (HIV-1 protease V82F/I84V [2]) | Fitness (HIV-1 protease V82F/I84V [2]) | pKi [3] | pIC50 (HIV-1LAI [4]) | pIC50 (HIV-1LAI [5]) | pIC50 (HIV-1BAL) | KI-wt/KI-mut [3]
CC(C)CN(C[C@@H](O)[C@H](Cc1ccccc1)NC(=O)O[C@H]1CO[C@H]2OCC[C@H]21)S(=O)(=O)c1cccc(O)c1 [Compound 36] | >3.0 | 10.82 | >0.8 | 10.61 | >4.9 | >0.8 | > 11.30 | 7.47 | 7.77 | 7.42 | 
CC(C)CN(C[C@@H](O)[C@H](Cc1ccccc1)NC(=O)O[C@H]1CO[C@H]2OCC[C@H]21)S(=O)(=O)c1ccc(CN)cc1 [Compound 35] |  |  |  |  |  |  | 10.09 | 7.70 | 7.55 | 7.89 | 1
CC(C)CN(C[C@@H](O)[C@H](Cc1ccccc1)NC(=O)O[C@H]1CO[C@H]2OCC[C@H]21)S(=O)(=O)c1cccc(CO)c1 [Compound 38] | >6.8 | 10.47 | >1.8 | 10.18 | >13 | >2.1 | < 11.30 | 8.10 | 7.55 | 8.03 | 
